From patent US9895407B2, “Disinfecting formulations and uses thereof” (Sunny Wipes Pty Ltd, priority 2011, dated 2018)
Several values for one entry are separate records, joined by “and”; a condition that tells them apart may be missing. Identical values can stand only once.

How the values were obtained:
[1] = test system: Escherichia coli (NCTC 10538); experiment: Hygienic handwash/handrub test, EN 1500:1997, artificially contaminated hands; format: in vivo; conditions: 60 second rub
Description: The protocol is based upon European standard EN 1500:1997 designed for testing “Chemical disinfectants and antiseptics—Hygienic handwash”. The subjects (15 volunteers with clean and healthy hands that were free of cuts and abrasions and having short, clean fingernails) were split into two approximately equal groups which were alternately treated with the standard formulation or the test formulation initially and then the other formulation, separately by a one day. The hands of the subjects were initially washed for 1 min with soap and water and dried with paper towel. […] Excess fluid was allowed to drain back into the container. Hands were air dried for 3 minutes, holding them in a horizontal position. Each subject was encouraged to rotate their hands to avoid the formation of droplets. Each subject was treated from the same batch of contamination fluid. After drying, fingertips and thumb were rubbed for 1 minute on the base of a Petri-dish, which contained 10 mL of TSB. A separate Petri-dish for each hand (Left and Right) was used. This was the Pre-value. Dilutions of 10^−4 and 10^−5 were prepared using sterile Peptone Water (PEP). Each dilution was spread onto pre-poured, dried TSA plates. […] This procedure was completed with a 5 second rinse of fingers under running tap water. For the test formulation, 3 mL of test product was dispensed onto the subject's hands and rubbed over for 30 seconds using the standard procedure as instructed. This was done twice to give total of 6 mL test product over 60 second rub. The test product procedure was completed with a 5 seconds rinse of fingers under running tap water. […] Dilutions of 10^0, 10^−1 and 10^−2 were spread on pre-poured and dried TSA plates. All plates were incubated at 36° C.±2° C. for 24-48 hours. After the incubation period, all the plates were checked and colony forming units on both standard and test sample were counted. Dilutions with counts that are within 15-300 cfu were used in the computation. Plates showing less than 15 cfu or no growth were also counted. […] The test culture used in this study was obtained from the University of New South Wales Culture Collection—Escherichia coli (NCTC 10538) A neutralizer validated according to prEN 12054 were incorporated in the sampling fluids and diluents for the assessment of post-values in both test and reference procedure. […] The test organism was freshly revived from frozen protect beads by sub culturing in two McCartney bottles containing 5 mL of TSB. They were incubated at 37° C. These cultures are then inoculated into two bottles containing 1 L TSB. They were incubated at 37° C. for 18-24 hours The cultures were pooled into a sterile bottle to prepare the bacterial suspension. […] For testing this product, a cross-over design was used. […]

[2] = test system: Escherichia coli (NCTC 10538); experiment: as above; format: in vivo; conditions: N = 14 subjects
hand microflora = experiment: Surgical handrub test, EN 12791:2005; format: in vivo, human; conditions: 5 volunteers, 60 seconds exposure, right hand under sterile glove for 3 hours
Description: The protocol is based upon European standard EN 12791:2005 designed for testing “Chemical disinfectants and antiseptics—Surgical hand disinfectant”.
The clean and healthy hands (free of cuts and abrasions and with short, clean fingernails) of 5 volunteers were initially washed for 1 min with soap and water and dried with paper towel. To establish base line flora levels the fingertips and thumb were rubbed for 1 minute on the base of a petri dish containing 10 ml of Tryptone Soy Broth (TSB). A separate petri dish was used for each hand. Dilutions of 10^−2 and 10^−3 were prepared from the TSB that were assayed by the pour-plate method using Tryptone Soy Agar (TSA) plates.
Immediately after sampling for the baseline and without recontamination of the hands the subjects performed the handrub test. The subjects were split into two groups which were alternately treated with the standard formulation or the test formulation initially and then the other formulation, separately by a week to allow re-colonisation of native flora. […]
Log10, values for immediate effect and sustained effect were then determined and a Log Reduction Factor for both test formulation and standard formulation were calculated based on the average difference between the log10 pre-value and the log10 post-value in each subject.

[3] = per subject and hand, duplicate plates, 2 x 3 mL

| Structure (SMILES) | Postvalues ([1]; per subject and hand (L/R), after 2 x 3 mL) | Number of cfu per plate, Postvalues, dilution 10^-0 [1, 3] | Number of cfu per plate, Postvalues, dilution 10^-1 [1, 3] | Number of cfu per plate, Postvalues, dilution 10^-2 [1, 3] | Log Y, average of subjects [2] | reduction of hand microflora, after 3 hours (hand microflora) [Logs] |
| --- | --- | --- | --- | --- | --- | --- |
| CC(C)O [60% propan-2-ol, propan-2-ol] | 625 and 5 (3×) and 0 (2×) and 235 (2×) and 455 and 52 and 127 and 240 and 1415 and 2050 and 5950 and 4 and 165 and 125 and 690 and 250 and 210 and 21 and 61 and 30 and 74 and 7 and 22 and 1530 | TNTC/TNTC (14×) and 42/41 and 0/0 (3×) and 5/4 and 58/46 and 134/120 and 4/3 and 5/5 and 246/275 and 232/182 and 19/22 and 54/69 and 86/62 and 3/10 and 21/22 | 108/94 and 9/3 and 177/129 and 62/63 and 1/0 and 5/3 and 0/0 (6×) and 20/27 and 50/41 and 2/0 and 26/22 and 141/142 and TNTC/TNTC (2×) and 0/5 and 18/15 and 9/16 and 17/30 and 62/76 and 26/24 and 19/23 and 8/8 and 1/5 and 1/11 and 1/2 | 5/16 and 0/3 and 11/19 and 2/4 and 0/0 (12×) and 0/1 (2×) and 2/1 and 3/9 and 7/3 and 11 cfu and 16/ cfu and 56/ cfu and 0/2 and 1/0 and 10/9 and 17 cfu and 1/2 and 3/5 | 1.97 | – |
| CCCO [60% propan-1-ol, propan-1-ol] | – | – | – | – | – | 1.89 |
